Measurements reported in PubChem BioAssay (NCI).
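96-well plates; 48 h exposure; 5 concentrations. Endpoints by linear interpolation between flanking doses. Not reached: highest tested concentration assigned. Here, GI50 denotes the concentration required for 50% inhibition of growth. The concentration for full growth arrest is given as TGI.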

Experiments:
Test in all cases: NCI anticancer screen, dose series, 48 h; in the data active = GI50 below about 0.43 µM; inactive = the rest
[1] = system: ACHN renal
[2] = system: SW-620 colon
[3] = system: SF-295 CNS
[4] = system: UACC-62 melanoma
[5] = system: NCI/ADR-RES ovarian
[6] = system: CAKI-1 renal
[7] = system: NCI-H460 lung
[8] = system: COLO 205 colon
[9] = system: OVCAR-5 ovarian
[10] = system: EKVX NSCLC
[11] = system: A549 NSCLC
[12] = system: U251 CNS
[13] = system: SF-268 CNS
[14] = system: SK-MEL-5 melanoma
[15] = system: OVCAR-4 ovarian
[16] = system: UO-31 renal
[17] = system: IGROV1 ovarian
[18] = system: SR leukemia
[19] = system: SN12C renal
[20] = system: UACC-257 melanoma
[21] = system: PC-3 prostate
[22] = system: HCC-2998 colon
[23] = system: DU-145 prostate
[24] = system: SNB-75 CNS
[25] = system: NCI-H522 lung
[26] = system: RPMI-8226 leukemia
[27] = system: CCRF-CEM leukemia
[28] = system: RXF 393 renal
[29] = system: OVCAR-8 ovarian
[30] = system: MDA-MB-435
[31] = system: HS 578T breast
[32] = system: A498 renal
[33] = system: MALME-3M melanoma
[34] = system: HOP-92 NSCLC
[35] = system: HCT-15 colon
[36] = system: HOP-62 NSCLC
[37] = system: SK-MEL-28 melanoma
[38] = system: M14 melanoma
[39] = system: NCI-H226 lung
[40] = system: SNB-19 CNS
[41] = system: SK-OV-3 ovarian
[42] = system: HL-60(TB) leukemia
[43] = system: MOLT-4 leukemia
[44] = system: MCF7 breast
[45] = system: SF-539 CNS
[46] = system: KM12 colon
[47] = system: BT-549 breast
[48] = system: NCI-H23 lung
[49] = system: 786-0 renal
[50] = system: T-47D breast
[51] = system: HCT-116 colon
[52] = system: SK-MEL-2 melanoma
[53] = system: MDA-MB-231 breast
[54] = system: OVCAR-3 ovarian
[55] = system: K-562 leukemia
[56] = system: TK-10 renal
[57] = system: HT29 colon
[58] = system: LOX IMVI melanoma

Oc1c(I)cc(I)c2cccnc12
48.3 µM: TGI [13]
14.2 µM: TGI [6]
25.3 µM: TGI [12]
30.8 µM: TGI [17]
20.2 µM: TGI [56]
16.5 µM: TGI [14]
58 µM: TGI [23] | TGI [32]
23.7 µM: TGI [38]
46.7 µM: TGI [53]
21.4 µM: TGI [16]
8.84 µM: TGI [5]
7.34 µM: TGI [22]
6.5 µM: TGI [54]
35.5 µM: TGI [20]
inactive: GI50 [1] 4.19 µM | GI50 [2] 3.74 µM | GI50 [3] 3.1 µM | GI50 [4] 3.09 µM | GI50 [5] 2.48 µM | GI50 [6] 3.17 µM | GI50 [7] 2.93 µM | GI50 [8] 3.6 µM | GI50 [9] 3.57 µM | GI50 [10] 3.38 µM | GI50 [11] 5.67 µM | GI50 [12] 3.74 µM | GI50 [13] 5.09 µM | GI50 [14] 2.4 µM | GI50 [15] 3.94 µM | GI50 [16] 2.17 µM | GI50 [17] 4.24 µM | GI50 [18] 5.75 µM | GI50 [19] 6.67 µM | GI50 [20] 3.53 µM | GI50 [21] 4.68 µM | GI50 [22] 2.44 µM | GI50 [23] 8.25 µM | GI50 [24] 15.3 µM | GI50 [25] 2.96 µM | GI50 [26] 6.96 µM | GI50 [27] 6.95 µM | GI50 [28] 11.4 µM | GI50 [29] 3.35 µM | GI50 [30] 4.41 µM | GI50 [31] 7.24 µM | GI50 [32] 12.2 µM | GI50 [33] 0.573 µM | GI50 [34] 8.48 µM | GI50 [35] 4.29 µM | GI50 [36] 4.85 µM | GI50 [37] 13.2 µM | GI50 [38] 5.27 µM | GI50 [39] 4.51 µM | GI50 [40] 3.33 µM | GI50 [41] 5.17 µM | GI50 [42] 6.82 µM | GI50 [43] 7.53 µM | GI50 [44] 3.89 µM | GI50 [45] 4.16 µM | GI50 [46] 4.69 µM | GI50 [47] 0.833 µM | GI50 [48] 2.19 µM | GI50 [49] 7.14 µM | GI50 [50] 2.88 µM | GI50 [51] 3.09 µM | GI50 [52] 8.82 µM | GI50 [53] 6.99 µM | GI50 [54] 2.42 µM | GI50 [55] 5.01 µM | GI50 [56] 1.68 µM | GI50 [57] 8.91 µM | GI50 [58] 5.13 µM
> 100 µM: TGI [2] | TGI [11] | TGI [15] | TGI [18] | TGI [21] | TGI [24] | TGI [25] | TGI [26] | TGI [27] | TGI [30] | TGI [31] | TGI [35] | TGI [37] | TGI [42] | TGI [43] | TGI [46] | TGI [55] | TGI [57]
47.1 µM: TGI [29]
22.5 µM: TGI [40]
83.3 µM: TGI [34]
13.5 µM: TGI [51]
25.4 µM: TGI [49]
9.52 µM: TGI [48]
29.8 µM: TGI [28]
45.5 µM: TGI [19]
24.6 µM: TGI [9]
19.9 µM: TGI [44]
89.2 µM: TGI [58]
10.4 µM: TGI [7]
15.6 µM: TGI [4] | TGI [50]
23.5 µM: TGI [45]
26.8 µM: TGI [1] | TGI [36]
27.6 µM: TGI [33]
24.2 µM: TGI [10]
8.13 µM: TGI [3]
52.4 µM: TGI [52]
29.2 µM: TGI [39] | TGI [41]
33.9 µM: TGI [47]
17 µM: TGI [8]
